# In US20080312301A1, “Substituted N-Benzo[D]Isoxazol-3-Yl-Amine Compounds as Inhibitors of Mglur5, Serotonin (5-Ht) and Noradrenaline Receptors, and Uses Thereof” (Gruenenthal GmbH, priority 2005, published 2008):
# How the values were obtained:
# [1] = biological target: T1, NA transporter (Rattus norvegicus, UniProt Q63380); test: Noradrenaline (NA) uptake inhibition in rat brain synaptosomes (hypothalamus), [3H]-NA; type: biochemical; conditions: conc. 10 μM
# T1 construct: from tissue; host or cells: rat hypothalamus synaptosomes (P2 fraction)
# Source text: (§1) I. Method for Determining the Noradrenaline and 5HT Uptake Inhibition:
# (§2) For in vitro studies, synaptosomes were freshly isolated from rat brain areas as described in the publication “The isolation of nerve endings from brain” by E. G. Gray and V. P. Whittaker, J. Anatomy 96, pages 79-88, 1962. The corresponding literature description is introduced hereby as reference and forms part of the disclosure.
# (§3) The tissue (hypothalamus for determining the noradrenaline uptake inhibition and medulla and pons for determining the 5HT uptake inhibition) was homogenized in ice-cold 0.32 M sucrose (100 mg of tissue/1 ml) in a glass homogenizer with Teflon pestle using five full up and down strokes at 840 revolutions/minute. The homogenate was centrifuged at 1000 g and at 4° C. for 10 minutes. After subsequent centrifugation at 17 000 g for 55 minutes, the synaptosomes (P2 fraction) are obtained and were resuspended in 0.32 M […] (0.5 ml/100 mg of the original weight).
# (§4) The respective uptake was measured in a 96-well microtiter plate. The volume was 250 μl and incubation took place at room temperature (approx. 20-25° C.) under an O2 atmosphere.
# (§5) The incubation time was 7.5 minutes for [^3H]-NA and 5 minutes for [^3H]-5-HT. The 96 samples were then filtered through a Unifilter GF/B® microtiter plate (Packard) and washed with […] of incubated buffer using a “Brabdel MPXRI-96T Cell Harvester”. The Unifilter GF/B plate was dried at 55° C. for 1 h. The plate was then sealed with a Back Seal® (Packard) and 35 μl of scintillation fluid were added per well (Ultima Gold®, Packard). After sealing with a top Seal® (Packard), the radioactivity was determined, after equilibrium had been reached (about 5 h), in a “Trilux 1450 Microbeta” (Wallac).
# The following characteristic data were found for the NA transporter:
# (§6) The amount of protein employed in the above determination corresponded to the value disclosed in the literature, as described for example in “Protein measurement with the folin phenol reagent”, Lowry et al., J. Biol. Chem., 193, 265-275, 1951. A detailed description of the method can also be found in the literature, for example from M. Ch. Frink, H.-H. Hennies, W. Engelberger, M. Haurand and B. Wilffert (1996) Arzneim.-Forsch./Drug Res. 46 (III), 11, 1029-1036. The corresponding literature descriptions are hereby introduced as reference and form part of the disclosure.
# [2] = biological target: T2, 5-HT uptake (serotonin reuptake) (Rattus norvegicus, UniProt P31652); test: 5HT uptake inhibition in rat brain synaptosomes (medulla and pons), [3H]-5-HT; type: biochemical; conditions: conc. 10 μM
# T2 construct: from tissue; host or cells: rat medulla and pons synaptosomes (P2 fraction)
# Source text: as §1, §2, §3, §4, §5, §6
# [3] = biological target: T3, mGluR5 receptor (Sus scrofa, UniProt I3LUI7); test: Affinity for the mGluR5 receptor: displacement of 3[H]-MPEP binding in pig brain homogenate; conditions: 10 μM compound, 5 nM 3[H]-MPEP
# T3 construct: 450 μg of protein from brain homogenate are incubated with 5 nM^3[H]-MPEP; from tissue; host or cells: pig brain hemispheres without medulla, cerebellum and pons
# Method in brief: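 Pig brain homogenate (450 μg protein) incubated with 5 nM 3[H]-MPEP and test compound at 10 μM for 60 min at room temperature. Displacement of radioligand binding measured after filtration.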
# T2 sequence (P31652 whole entry): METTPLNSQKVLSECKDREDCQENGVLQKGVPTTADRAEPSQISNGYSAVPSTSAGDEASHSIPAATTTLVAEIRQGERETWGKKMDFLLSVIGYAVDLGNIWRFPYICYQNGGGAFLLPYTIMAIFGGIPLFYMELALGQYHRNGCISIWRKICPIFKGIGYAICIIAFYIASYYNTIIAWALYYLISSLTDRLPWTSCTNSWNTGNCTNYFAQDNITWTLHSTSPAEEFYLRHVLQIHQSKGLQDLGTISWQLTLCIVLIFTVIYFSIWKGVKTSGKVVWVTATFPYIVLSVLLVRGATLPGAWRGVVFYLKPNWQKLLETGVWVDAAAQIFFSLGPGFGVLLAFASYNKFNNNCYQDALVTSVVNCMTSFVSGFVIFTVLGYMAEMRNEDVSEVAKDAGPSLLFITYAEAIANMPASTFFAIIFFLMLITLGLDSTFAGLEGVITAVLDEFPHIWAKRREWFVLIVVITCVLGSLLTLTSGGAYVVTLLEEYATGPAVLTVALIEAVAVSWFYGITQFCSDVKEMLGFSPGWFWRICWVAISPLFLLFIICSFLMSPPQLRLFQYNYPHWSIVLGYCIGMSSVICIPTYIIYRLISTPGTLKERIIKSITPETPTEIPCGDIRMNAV
# T3 sequence (I3LUI7 19-1212): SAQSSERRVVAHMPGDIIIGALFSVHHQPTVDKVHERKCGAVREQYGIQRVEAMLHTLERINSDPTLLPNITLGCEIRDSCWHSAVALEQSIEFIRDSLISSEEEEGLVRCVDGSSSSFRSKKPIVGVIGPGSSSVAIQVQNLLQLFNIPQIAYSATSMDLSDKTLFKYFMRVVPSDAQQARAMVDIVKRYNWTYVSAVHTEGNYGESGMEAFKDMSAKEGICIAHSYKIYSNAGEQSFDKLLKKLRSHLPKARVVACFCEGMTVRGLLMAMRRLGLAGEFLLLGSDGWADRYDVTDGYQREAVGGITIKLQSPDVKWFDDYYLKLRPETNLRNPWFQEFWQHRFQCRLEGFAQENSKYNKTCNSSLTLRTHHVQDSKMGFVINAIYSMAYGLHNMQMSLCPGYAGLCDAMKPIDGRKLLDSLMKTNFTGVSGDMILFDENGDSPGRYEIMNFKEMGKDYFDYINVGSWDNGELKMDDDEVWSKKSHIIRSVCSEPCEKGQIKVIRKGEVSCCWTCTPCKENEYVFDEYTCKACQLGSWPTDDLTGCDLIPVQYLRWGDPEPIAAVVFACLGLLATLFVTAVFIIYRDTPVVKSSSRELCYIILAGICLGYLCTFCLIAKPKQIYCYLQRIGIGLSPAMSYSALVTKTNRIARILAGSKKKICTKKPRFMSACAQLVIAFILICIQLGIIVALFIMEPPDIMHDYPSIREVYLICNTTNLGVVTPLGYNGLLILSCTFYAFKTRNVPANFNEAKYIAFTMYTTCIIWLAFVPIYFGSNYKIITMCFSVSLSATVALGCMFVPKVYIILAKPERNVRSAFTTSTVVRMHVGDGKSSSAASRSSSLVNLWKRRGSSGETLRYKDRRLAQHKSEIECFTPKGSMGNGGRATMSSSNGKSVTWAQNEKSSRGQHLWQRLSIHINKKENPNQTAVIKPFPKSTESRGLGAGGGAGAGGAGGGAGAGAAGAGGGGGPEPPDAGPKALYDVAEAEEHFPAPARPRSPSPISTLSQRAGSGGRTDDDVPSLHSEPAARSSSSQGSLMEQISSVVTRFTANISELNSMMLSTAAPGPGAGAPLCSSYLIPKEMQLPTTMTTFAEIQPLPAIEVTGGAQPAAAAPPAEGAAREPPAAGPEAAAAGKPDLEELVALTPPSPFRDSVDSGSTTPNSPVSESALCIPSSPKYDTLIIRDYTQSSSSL
# T1 sequence (Q63380 1-617): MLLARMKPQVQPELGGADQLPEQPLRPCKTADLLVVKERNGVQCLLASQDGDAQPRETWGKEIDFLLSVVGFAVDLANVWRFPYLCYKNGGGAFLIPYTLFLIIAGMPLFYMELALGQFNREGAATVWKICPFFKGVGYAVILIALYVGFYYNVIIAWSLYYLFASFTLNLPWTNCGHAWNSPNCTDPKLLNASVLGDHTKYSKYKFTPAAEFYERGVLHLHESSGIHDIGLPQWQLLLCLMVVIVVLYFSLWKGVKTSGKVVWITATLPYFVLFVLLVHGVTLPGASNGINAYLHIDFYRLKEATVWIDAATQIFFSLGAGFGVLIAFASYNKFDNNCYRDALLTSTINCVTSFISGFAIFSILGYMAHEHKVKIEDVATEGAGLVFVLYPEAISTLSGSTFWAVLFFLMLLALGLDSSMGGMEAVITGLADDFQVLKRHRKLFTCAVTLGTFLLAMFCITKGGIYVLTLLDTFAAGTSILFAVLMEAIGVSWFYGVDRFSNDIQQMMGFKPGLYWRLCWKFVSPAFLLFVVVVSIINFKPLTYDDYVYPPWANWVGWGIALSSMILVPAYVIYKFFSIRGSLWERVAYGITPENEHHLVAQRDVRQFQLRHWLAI
inhibition at 10 µM [1],inhibition at 10 µM [2],inhibition at 10 µM [3],SMILES
63%,77%,,"O=C(Nc1noc2cc(Cl)ccc12)c1cccc(C(F)(F)F)c1F [Example 19, N-(6-chlorobenzo[d]isoxazol-3-yl)-2-fluoro-3-trifluoromethylbenzamide]"
,91%,35%,"Cc1ccccc1C(=O)Nc1noc2ccc(F)cc12 [Example 28, N-(5-fluorobenzo[d]isoxazol-3-yl)-2-methylbenzamide]"
,89%,40.1%,"Cc1ccc2onc(NC(=O)c3cccc(F)c3)c2c1 [Example 32, 3-fluoro-N-(5-methylbenzo[d]isoxazol-3-yl)benzamide]"
,79%,45.2%,"O=C(Nc1noc2ccc(Br)cc12)c1ccc(F)cc1F [Example 30, N-(5-bromobenzo[d]isoxazol-3-yl)-2,4-difluorobenzamide]"
